Values of other authors as cited in article PMC4906314, “Direct interaction of beta-amyloid with Na,K-ATPase as a putative regulator of the enzyme function” (Scientific Reports, 2016).
pKd: −log10 of the molar value.

Molecular target: Na,K-ATPase
Details: at the same conditions; read-out: Kd for complexes of Na,K-ATPase with CTS

For C[C@]12CC[C@H](O)C[C@@]1(O)CC[C@@H]1[C@@H]2CC[C@]2(C)[C@@H](c3ccc(=O)oc3)C[C@H]3O[C@]132 [marinobufagenin], the pKd is listed as 5.82.
